The values that follow come from patent publication US20210372995A1, “BIOMIMETIC PLATFORMS TO MODEL VASCULAR PATHOPHYSIOLOGY, DIAGNOSTICS, AND THERAPY” (The Johns Hopkins University, priority 2017, published 2021).

For one data set, the system named is hTERT HAEC. Briefly: NO production by hTERT HAEC in 3D scaffolds (conditioned media, Seivers NO analyzer). Format: cell-based, human. Conditions: 1 μM, 30 minutes; HAEC growing 2 months in 3D scaffolds. As for the experimental part:
Endothelial cells have many functions including the production of nitric oxide (NO). NO is a vasoactive agent important for modulating the vascular smooth muscle tone (Davidge, S. T., et al., Circ Res 1995, 77 (2), 274-83). The confluent cells growing for 2 months in the tubes were tested for NO production to determine endothelial function and viability. To qualitatively assess the NO production, 50 μL of the conditioned-media was analyzed using Seivers NO analyzer. FIGS. 13A-13C show NO production by hTERT HAEC with and without calcium ionophore stimulation. A 7- to 35-fold increase of NO was observed when HAEC growing in 3D scaffolds was stimulated with 1 μM A23187 calcium ionophore for 30 minutes. Others have reported twofold NO increase after 60-minute incubation of HAEC in 1 μM ionomycin grown on well plates (Cosentino, F., et al., Circulation 1997, 96 (1), 25-8). Using bovine coronary microvascular endothelial cells, a 3-fold increase was observed when stimulated with 1 μM A23187 calcium ionophore for 5 hours (Davidge, S. T., et al., Circ Res 1995, 77 (2), 274-83). […] There is difficulty in direct comparison of results with reported observations due to differences in methodology, analysis, and cell types. […] The higher increase in NO production warrants further investigation if 3D geometry affects HAEC NO production. […]

Data set [1] relates to bovine coronary microvascular endothelial cells. Conditions: 1 μM, 5 hours; cited from earlier work.
A further data set has as its system fibroblasts. Conditions: 100 µM; cited from earlier work.
The conditions of data set [2]: cited from earlier work.
The next data set deals with HAEC. Conditions: 1 μM, 60-minute incubation; HAEC on well plates; cited from earlier work.
In another data set the test system is HPASMC. Briefly: Contractility of aligned HPASMC on microwrinkled PDMS. It is filed as cell-based, human. Conditions: 1 μM, 10 minutes. As for the experimental part: HPASMC cultivated on microwrinkled PDMS were treated with angiotensin ii (1 μM) and serial phase images were taken (1, 3, 10 minutes, from left to right) to assess cell contraction. […] Scale bar=50 μm.
A 6 μm PDMS film was stretched by 20% with a uniaxial stretching system, followed by exposure to oxygen plasma (Plasma Etcher Inc.) at 80 W for 60 minutes to generate wrinkles (FIG. 1A-FIG. 1C and FIG. 16). […] To test the contractility of aligned HPASMC, HPASMC were exposed to angiotensin II (1 μM; Sigma Aldrich, St. Louis, Mo.) for 10 minutes. […] A more quantitative measurement of SMC contraction is employed as described in the Experimental Design section.

Data set [3] deals with human coronary artery endothelial cells. Conditions: 20 ng/mL; cited from earlier work.

`CNc1ccc2oc(C[C@H]3O[C@@]4(CC[C@H]3C)O[C@H]([C@H](C)C(=O)c3ccc[nH]3)[C@H](C)C[C@H]4C)nc2c1C(=O)O` [A23187]: the “increase of NO” value in the data set with hTERT HAEC is 7- to 35 fold. Moreover, the NO increase in data set [1] is reported as 3 fold.

With `COc1ccccc1Oc1c(NS(=O)(=O)c2ccc(C(C)(C)C)cc2)nc(-c2ncccn2)nc1OCCO` [Bosentan], in the data set with fibroblasts, the proliferation in fibroblasts result is “altered” and the “smooth muscle alpha actin expression in fibroblasts” value is recorded as “altered”.

For `CCCCC[C@H](O)/C=C/[C@@H]1[C@H]2C/C(=C/CCCC(=O)O)O[C@H]2C[C@H]1O` [Prostacyclin], in data set [2], the half-life was 3 to 5 min.

Regarding `C[C@H](CCC(=O)O)C[C@H](C)C[C@H](C)C(=O)/C=C(\O)[C@H](C)C[C@H](C)C/C=C/[C@@H](C)[C@@H](O)[C@@H](C)[C@@H](O)C[C@@H]1CC[C@@](C)([C@H]2CC[C@@](C)([C@@H](C)O)O2)O1` [ionomycin], the NO increase entry in the data set with HAEC is recorded as “twofold”.

As to “angiotensin II (DRVYIHPF; Angiotensin-2; UniProt P01019 25-32, looked up) [contractile agent (Sigma Aldrich)]”, in the data set on HPASMC, the “cell contraction of aligned HPASMC” value is “time-dependent contraction”.

As for hepatocyte growth factor, the NO increase result in data set [3] is listed as “twofold”.
